In this experiment the target is T1, TGF-beta receptor type-1 (Homo sapiens, UniProt P36897).
T1 sequence (P36897 whole entry): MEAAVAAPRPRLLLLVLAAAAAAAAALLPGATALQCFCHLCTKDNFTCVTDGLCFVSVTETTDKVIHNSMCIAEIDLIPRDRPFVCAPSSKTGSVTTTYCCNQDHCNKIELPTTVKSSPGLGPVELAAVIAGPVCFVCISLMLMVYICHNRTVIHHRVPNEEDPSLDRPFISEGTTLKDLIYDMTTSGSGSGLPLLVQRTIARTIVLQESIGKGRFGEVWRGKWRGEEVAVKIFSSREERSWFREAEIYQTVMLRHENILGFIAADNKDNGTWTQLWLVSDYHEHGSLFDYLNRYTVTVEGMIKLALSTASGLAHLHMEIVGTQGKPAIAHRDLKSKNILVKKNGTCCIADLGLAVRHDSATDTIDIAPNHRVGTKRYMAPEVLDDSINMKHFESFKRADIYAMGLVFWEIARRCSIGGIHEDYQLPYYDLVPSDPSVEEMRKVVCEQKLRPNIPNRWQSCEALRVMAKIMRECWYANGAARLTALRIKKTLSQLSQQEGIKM
As to the kind of experiment: Inhibition of TGFbetaR1 in TGFbeta-stimulated mink Mv1Lu cells assessed as reduction in SMAD nuclear translocation preincubated for 1 hr followed by TGFbeta-stimulation for 15 mins by array scan based method.

Turning to `Cc1cccc(-c2ncn(CC(F)F)c2-c2ccc3nccn3c2)n1`, the IC50 is 420 nM.

For the molecule `N#Cc1cnc2ccc(-c3c(-c4ccc(F)c(Cl)c4)ncn3CCO)nn12` [6-(4-(3-chloro-4-fluorophenyl)-1-(2-hydroxyethyl)-1H-imidazol-5-yl)imidazo[1,2-b]pyridazine-3-carbonitrile], the half-maximal inhibitory concentration (IC50) came to 350 nM.

(Values after BindingDB's records for doi:10.1021/acsmedchemlett.9b00552 (Bristol-Myers Squibb Research & Development, 2020).)
